The values that follow come from patent US20120237552A1, “Peptoid Agonists of Nerve Growth Factor and Their Use as Medicaments” (priority 2009, published 2012).

In one experiment the test system is PC12 cells. The experiment in a line: PC12 cell differentiation (neurite outgrowth). Type of experiment: cell-based, rat. The settings on record: 3 days, peptoids 2 ng/ml to 50 μg/ml, reduced serum (0.5% FBS and 1% HS); compared with NGF 100 ng/ml. Here is the method: PC 12 cell differentiation was measured by plating cells onto collagen-coated 24-wells plates. NGF (100 ng/ml) or the small chemicals at different concentrations were added and the percentage of cells with neurite processes greater than two cell bodies in length were counted after relevant treatment. For each experiment at least 300 cells were randomly measured (Burstein and Greene, 1978).
PC12 cells were maintained at 37° C. in DMEM supplemented with 2.5% FBS, 15% of Horse serum (HS) and penicillin/streptomycin in a humidified 5% CO2 incubator. The cells were grown on 60- and 100-mm tissue culture dishes (Becton Dickinson).
PC 12 cells were cultured for 3 days in the presence of the peptoids (from 2 ng/ml to 50 μg/ml) under reduced serum conditions (0.5% FBS and 1% HS).

A further experiment relates to C57BL/6 EAE mice. The experiment in a line: Histological evaluation of brain and spinal cord in EAE mice. The experiment is classed as in vivo. As to conditions: 100 mg/kg. Here is the method: Histological evaluation was done on paraformaldehyde-fixed, paraffin-embedded sections of brain and spinal cord. Sections 10 μm thick) were stained with hematoxylin and Luxol Fast Blue to assess inflammation and demyelination. Semiquantitative histological evaluation for inflammation and demyelination was conducted and scored blindly using the following scale: 0=normal; 1=1 to 3/section perivascular cuffs with minimal demyelination; 2=3 to 10 perivascular cuffs/section accompanied by moderate demyelination; 3=wide-spread perivascular cuffing, extensive demyelination with large confluent lesions (Villoslada et al., 2001).
Immunohistochemical procedures were performed on 10 μm paraffin-embedded sections of brain and spinal cord as described previously (Villoslada et al., 2001). Primary antibodies were added at concentrations of 1/1000 for MCA500 (rat anti-mouse CD3 from Serotec) and 1/500 for MCA1107 (rat anti-mouse CD4 from Serotec). Specificity of the immunoreaction was determined by incubating sections without the primary antibodies or using the corresponding isotype controls which yielded no immunoreactivity.

Turning to `CC(C)CCN(CC(=O)N(CCCN1CCCC1=O)CC(N)=O)C(=O)CNCCc1ccccc1F` [N35-4-8C, [N-(2-(2′-Fluorophenyl)ethyl)glycyl]-[N-(3-methylbutyl)glycyl]-N-[3-(2′-oxopyrrolidinyl)propyl]glycinamide], the “differentiation of PC12 cells” value in the experiment on PC12 cells is reported as “induce the differentiation of PC12 cells at different concentrations to an extent substantially comparable with that induce by NGF”. In the experiment on C57BL/6 EAE mice (day 26, vs placebo, p<0.05), the “histological scores at the brain and spinal cord level” value is “significant lower histological scores”. Moreover, the “demyelination areas (Luxol fast blue)” value with C57BL/6 EAE mice (spinal cord, vs placebo) was “decreased”. Also, the “inflammatory infiltrates in the brain and the spinal cord” value in the experiment on C57BL/6 EAE mice (vs placebo, p<0.05) is on record as “less inflammatory infiltrates”.
